Reference: patent publication US6686380B2, “Treatment of refractory tumors using epothilone derivatives” (Bristol-Myers Squibb Company, priority 2001, dated 2004)

How the values were obtained:
[1] = tested on: human tumor xenografts; assay: Antitumor activity by oral route of administration; format: in vivo, mice or rats; details: two different human tumor xenografts
Procedure: (§4) For administration to rodents, the subject compound was administered in either 1:9 ethanol/water, or 1:1:8 Cremophor®/ethanol/water. Final dilution for parenteral administration was made with water one hour before administration. Final dilution for oral administration was made with 0.25 M sodium phosphate buffer. Paclitaxel was dissolved in a 50/50 mixture of ethanol and Cremophor® and maintained at 4° C. Final dilution was made immediately prior to injection to prevent undesirable precipitation. Tumor cell lines HCT 116 human carcinoma and HCT116/V/M46 cells were maintained on McCoy's medium and 10% heat-inactivated fetal bovine serum. A2780 human ovarian carcinoma cells and A2780Tax cells were maintained in IMEM and 10% heat-inactivated fetal bovine serum. All other cell lines were maintained in RPM11640 medium with 10% heat-inactivated fetal bovine serum.

[2] = tested on: panel of tumor cell lines; assay: In vitro cytotoxicity, tetrazolium-based colorimetric assay; details: read-out: median cytotoxic concentration (IC50 values); 21 cell lines tested; 72 h incubation; FIG. 1
Procedure: as §4
The in vivo cytotoxicity was assessed in tumor cells by a tetrazolium-based colorimetric assay at 492 nm. The cells were seeded 24 h prior to drug addition. The reagents were added following a 72 h incubation with serially diluted test compound. Measurements were taken after a further three hours incubation. The results are expressed as median cytotoxic concentration (IC50 values).

[3] = tested on: Pat-7, A2780Tax, HCT116/VM46, Pat-21 and M5076 tumors; assay: In vivo antitumor testing, paclitaxel-resistant tumors; set-up: species or system mice; details: all five paclitaxel-resistant tumors (four human and one murine)
Excerpt: (§1) In Vivo Antitumor Testing: The following human tumors were used: ovarian carcinoma A2780, A2780Tax and Pat-7 (established from an ovarian tumor biopsy from a patient who had developed resistance to paclitaxel); HCT116, HCT116/VM46 and LS174T colon carcinomas, Pat-21 breast carcinoma, and Pat-26 pancreatic carcinoma (from a liver metastasis biopsy). Pat-7, Pat-21 ad Pat-26 xenografts were established initially from primary tumor biopsies directly as xenotransplants grown in whole-body irradiated nude mice without any intervening in vitro cell culturing steps. The innately paclitaxel-insensitive murine fibrosarcoma M5076 was also employed. The human tumor xenografts were maintained in Balb/c nu/nu nude mice. M5076 was maintained in C57BL/6 mice. Tumors were propagated as subcutaneous transplants in the appropriate mouse strain using tumor fragments obtained from donor mice. […]
(§2) The required number of animals needed to detect a meaningful response (6-8) were pooled at the start of the experiment and each was given a subcutaneous implant of a tumor fragment (˜50 mg) with a 13-gauge trocar. […] For treatment of animals with advanced-stage disease, tumors were allowed to grow to the pre-determined size window (tumors outside the range were excluded) and animals were evenly distributed to various treatment and control groups. […]

[4] = tested on: clonogenic tumor cells; assay: Clonogenic cell colony-formation assay (IC90); format: cell-based; details: clonogenic cytotoxicity assay; read-out: concentration needed to kill 90% of clonogenic cancer cells (IC90)
Procedure: Clonogenic cell colony-formation assay: the potency required for the test compound and paclitaxel to kill clonogenic tumor cells (cells that are able to divide indefinitely to form a colony) in vitro was evaluated by a colony formation assay. The concentration needed to kill 90% of clonogenic cancer cells (IC90) was determined.

[5] = tested on: tubulin isolated from calf brain; assay: Tubulin polymerization assay; format: biochemical; details: based on EC0.01
Procedure: Tubulin polymerization assay: the potency required for the test compound and paclitaxel to polymerize tubulin isolated from calf brain was evaluated by published techniques. The effective concentration (EC0.01) was defined as the interpolated concentration capable of inducing an initial slope of optical density (OD) of 0.01 OD/minute rate and is calculated using the formula: EC0.01=concentration/slope. EC0.01 values are expressed as the mean with standard deviation obtained from 3 different concentrations.

[6] = tested on: A2780 human ovarian carcinoma; HCT116 and LS 174T human colon carcinoma; assay: In vivo antitumor testing, paclitaxel-sensitive xenografts; set-up: species or system nude mice; details: three paclitaxel-sensitive human tumor xenografts
Excerpt: as §1, §2

[7] = tested on: HCT116/VM46, A2780Tax and Pat-7 cell lines; assay: Cytotoxicity against cell lines that had developed resistance to paclitaxel (FIG. 2); format: cell-based, human
Procedure: (§3) The concentration needed to kill 90% of clonogenic cancer cells (IC90) was determined.

[8] = tested on: Pat-7 human ovarian carcinoma; assay: In vivo antitumor testing, Pat-7 xenograft; set-up: species or system nude mice
Excerpt: In Vivo Antitumor Testing: The following human tumors were used: ovarian carcinoma A2780, A2780Tax and Pat-7 (established from an ovarian tumor biopsy from a patient who had developed resistance to paclitaxel); HCT116, HCT116/VM46 and LS174T colon carcinomas, Pat-21 breast carcinoma, and Pat-26 pancreatic carcinoma (from a liver metastasis biopsy). Pat-7, Pat-21 ad Pat-26 xenografts were established initially from primary tumor biopsies directly as xenotransplants grown in whole-body irradiated nude mice without any intervening in vitro cell culturing steps. The innately paclitaxel-insensitive murine fibrosarcoma M5076 was also employed. The human tumor xenografts were maintained in Balb/c nu/nu nude mice. M5076 was maintained in C57BL/6 mice. Tumors were propagated as subcutaneous transplants in the appropriate mouse strain using tumor fragments obtained from donor mice. Tumor passage occurred biweekly for murine tumors and approximately every two to eight weeks for the various human tumor lines. With regard to efficacy testing, M5076 tumors were implanted in (C57B1/6×DBA/2)F1 hybrid mice, and human tumors were implanted in nude mice. All tumor implants for efficacy testing were subcutaneous (sc).
The required number of animals needed to detect a meaningful response (6-8) were pooled at the start of the experiment and each was given a subcutaneous implant of a tumor fragment (˜50 mg) with a 13-gauge trocar. For treatment of early-stage tumors, the animals were again pooled before distribution to the various treatment and control groups. For treatment of animals with advanced-stage disease, tumors were allowed to grow to the pre-determined size window (tumors outside the range were excluded) and animals were evenly distributed to various treatment and control groups. Treatment of each animal was based on individual body weight. Treated animals were checked daily for treatment related toxicity/mortality. Each group of animals was weighed before the initiation of treatment (Wt1) and then again following the last treatment dose (Wt2).
Tumor weights (mg) were estimated from the formula: […]
The maximum tolerated dose (MTD) is defined as the dose level immediately above which excessive toxicity (i.e. more than one death) occurred. […] Activity is described at the OD.
Tumor response end-point was expressed in terms of tumor growth delay (T-C value), defined as the difference in time (days) required for the treated tumors (T) to reach a predetermined target size compared to those of the control group (C).

[9] = tested on: HCT116 and A2780 tumor cell lines; assay: Clonogenic cell colony-formation assay, paclitaxel-sensitive lines; format: cell-based, human; details: two sensitive tumor cell lines (HCT116 and A2780)
Procedure: as §3

[10] = tested on: human tumor xenografts; details: general statement; cited from earlier work

Compound | antitumor activity given orally compared with IV administration [1] | IC50 [2] [nM] | antitumor efficacy compared with paclitaxel [3] | IC90 [4] [nM] | tubulin polymerization potency relative to paclitaxel [5] | antitumor activity compared with paclitaxel [6] | retention of cytotoxic potency in resistant versus sensitive lines ([7]; HCT116/VM46, A2780Tax and Pat-7 compared to the sensitive lines) | cytotoxicity compared with paclitaxel ([7]; three cell lines that had developed resistance to paclitaxel, FIG. 2) | LCK ([8]; PO, every 2 days x 5, at MTD, pH 8.0 buffered vehicle, first of two experiments) [LCK] | LCK ([8]; PO, every 2 days x 5, at MTD, pH 8.0 buffered vehicle, second of two experiments) [LCK] | oral antitumor activity ([8]; PO, every 2 days x 5 schedule) | potency in killing clonogenic cells compared with paclitaxel [9] | activity when administered by the oral route [10] | LCK ([8]; IV, optimal dose and schedule, concomitantly tested, first of two experiments) [LCK] | LCK ([8]; IV, optimal dose and schedule, concomitantly tested, second of two experiments) [LCK]
C/C(=C\c1csc(C)n1)[C@@H]1CC2O[C@]2(C)CCC[C@H](C)[C@H](O)[C@@H](C)C(=O)C(C)(C)[C@@H](O)CC(=O)N1 (relative stereo) [test compound, [1 S-[1R*,3R*(E),7R*,10S*,11R*,12R*,16S*]]-7,11-1-Dihydroxy-8,8,10,12,16-pentamethyl-3-[1-methyl-2-(2-methyl-4-thiazolyl)ethenyl]-4-aza-17-oxabicyclo[14.1.0]heptadecane-5,9-dione] | equivalent to that produced by IV drug administration | 1.4 to 34.5 | more efficacious than paclitaxel | ~7.5 | about 2.5 fold | equivalent to paclitaxel | almost completely retaining its cytotoxic potency | far better than paclitaxel | 3.1 | 2.5 | highly active orally | similarly potent | – | – | –
CC(=O)O[C@H]1C(=O)[C@@]2(C)[C@H]([C@H](OC(=O)c3ccccc3)[C@]3(O)C[C@H](OC(=O)[C@H](O)[C@@H](NC(=O)c4ccccc4)c4ccccc4)C(C)=C1C3(C)C)[C@]1(OC(C)=O)CO[C@@H]1C[C@@H]2O [paclitaxel, reference compound] | – | – | – | – | – | – | – | – | – | – | – | – | typically inactive | 1.3 | 1.2
